In patent publication US11377423B2, “Inhibitors of histone deacetylase” (The Broad Institute, Inc., priority 2012, dated 2022):
Read-outs that look alike come from different tables or passages of the source. Each block holds one molecule with its values, some of them ahead of it.

Key:
HDAC1 [1] = biological target: T1, HDAC1 (Homo sapiens (Human), UniProt Q13547); assay: Caliper HDAC enzymatic endpoint assay, HDAC1; format: biochemical
HDAC2 [2] = biological target: T2, HDAC2 (Homo sapiens (Human), UniProt Q92769); assay: Caliper HDAC enzymatic endpoint assay, HDAC2; format: biochemical
HDAC3 [3] = biological target: T3, HDAC3 (Homo sapiens (Human), UniProt O15379); assay: Caliper HDAC enzymatic endpoint assay, HDAC3; format: biochemical
HDAC4 = HDAC4 (Homo sapiens (Human), UniProt P56524); assay: Caliper HDAC enzymatic endpoint assay, HDAC4; format: biochemical; conditions: Table 2C; read-out: HDAC4 IC50 after 0 hr preincubation
HDAC5 = HDAC5 (Homo sapiens (Human), UniProt Q9UQL6); assay: Caliper HDAC enzymatic endpoint assay, HDAC5; format: biochemical; conditions: Table 2C; read-out: HDAC5 IC50 after 0 hr preincubation
HDAC6 = HDAC6 (Homo sapiens (Human), UniProt Q9UBN7); assay: Caliper HDAC enzymatic endpoint assay, HDAC6; format: biochemical; conditions: Table 2C; read-out: HDAC6 IC50 after 0 hr preincubation
HDAC7 = HDAC7 (Homo sapiens (Human), UniProt Q8WUI4); assay: Caliper HDAC enzymatic endpoint assay, HDAC7; format: biochemical; conditions: Table 2C; read-out: HDAC7 IC50 after 0 hr preincubation
HDAC8 = HDAC8 (Homo sapiens (Human), UniProt Q9BY41); assay: Caliper HDAC enzymatic endpoint assay, HDAC8; format: biochemical; conditions: Table 2C; read-out: HDAC8 IC50 after 0 hr preincubation
HDAC9 = HDAC9 (Homo sapiens (Human), UniProt Q9UKV0); assay: Caliper HDAC enzymatic endpoint assay, HDAC9; format: biochemical; conditions: Table 2C; read-out: HDAC9 IC50 after 0 hr preincubation
[4] = system: human megakaryocyte progenitors; assay: Growth of human megakaryocyte progenitors (surrogate assay for platelet depletion); format: cell-based; conditions: for toxicity to human megakaryocyte progenitors at higher concentrations: particularly at 10 μM and 20 μM
Description: Compounds of the invention were evaluated for their effect on the growth of human megakaryocyte progenitors (surrogate assay for platelet depletion). Human CD34+ cells were grown in a collagen-based gel (Megacult-C, Stemcell Technologies). […] 100% indicates no difference in cell viability relative to the DMSO treated cells. […] This is the desired effect.

HDAC2 [5] = biological target: T2, HDAC2
HDAC1 [6] = biological target: T1, HDAC1; assay: Kinetics of the inhibition of HDAC1; conditions: for T1/2: HDAC1 residence
HDAC1 [7] = biological target: T1, HDAC1; assay: Binding constant from HDAC1 inactivation kinetics; conditions: HDAC1, values marked *; read-out: Ki (binding constant derived from HDAC1 inactivation kinetics)
HDAC2 [8] = biological target: T2, HDAC2; assay: Kinetics of the inhibition of HDAC2
HDAC3 [9] = biological target: T3, HDAC3; assay: Kinetics of the inhibition of HDAC3
[10] = system: HDACs 1, 2, 3, 4, 5, 6, 7, 8, and 9; assay: HDAC selectivity panel (Caliper), isoform selectivity; conditions: from IC50 values
[11] = read-out: HDAC1 IC50 3 h Preinc, Table 2A, 3 h preincubation
[12] = read-out: HDAC2 IC50 3 h Preinc, Table 2A, 3 h preincubation
[13] = read-out: HDAC3 IC50 3 h Preinc, Table 2A, 3 h preincubation
[14] = read-out: HDAC1 IC50 3 h Prein, Table 2, 3 h preincubation
[15] = read-out: HDAC2 IC50 3 h Prein, Table 2, 3 h preincubation
[16] = read-out: HDAC3 IC50 3 h Prein, Table 2, 3 h preincubation

T3 sequence (O15379 whole entry): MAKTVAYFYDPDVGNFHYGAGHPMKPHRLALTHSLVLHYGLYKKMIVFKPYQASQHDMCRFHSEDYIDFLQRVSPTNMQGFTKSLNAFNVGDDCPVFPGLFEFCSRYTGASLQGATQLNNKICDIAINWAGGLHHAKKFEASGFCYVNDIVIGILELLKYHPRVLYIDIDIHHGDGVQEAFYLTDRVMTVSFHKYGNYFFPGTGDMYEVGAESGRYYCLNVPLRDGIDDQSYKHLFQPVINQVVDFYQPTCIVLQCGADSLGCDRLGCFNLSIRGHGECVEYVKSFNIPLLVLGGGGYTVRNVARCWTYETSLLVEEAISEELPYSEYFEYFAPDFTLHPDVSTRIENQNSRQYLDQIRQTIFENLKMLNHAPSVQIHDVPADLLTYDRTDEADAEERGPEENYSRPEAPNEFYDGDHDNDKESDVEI
T3 sequence (Q9Y618 395-489 partner): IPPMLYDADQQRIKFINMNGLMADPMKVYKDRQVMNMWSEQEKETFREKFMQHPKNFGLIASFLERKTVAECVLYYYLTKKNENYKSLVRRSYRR
T2 sequence (Q92769 whole entry): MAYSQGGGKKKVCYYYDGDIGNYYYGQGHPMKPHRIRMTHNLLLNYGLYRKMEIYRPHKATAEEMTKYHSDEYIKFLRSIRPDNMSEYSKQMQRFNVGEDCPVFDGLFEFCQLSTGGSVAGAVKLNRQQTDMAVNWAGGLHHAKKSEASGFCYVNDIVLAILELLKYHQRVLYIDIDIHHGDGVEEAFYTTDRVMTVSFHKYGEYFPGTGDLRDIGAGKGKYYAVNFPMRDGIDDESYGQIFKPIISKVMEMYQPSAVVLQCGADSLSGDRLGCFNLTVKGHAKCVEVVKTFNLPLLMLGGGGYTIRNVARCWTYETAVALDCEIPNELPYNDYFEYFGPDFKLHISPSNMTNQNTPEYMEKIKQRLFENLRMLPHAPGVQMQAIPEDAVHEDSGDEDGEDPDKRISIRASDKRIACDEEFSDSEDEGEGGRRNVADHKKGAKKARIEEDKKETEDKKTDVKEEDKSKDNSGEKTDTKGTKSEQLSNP
T1 sequence (Q13547 whole entry): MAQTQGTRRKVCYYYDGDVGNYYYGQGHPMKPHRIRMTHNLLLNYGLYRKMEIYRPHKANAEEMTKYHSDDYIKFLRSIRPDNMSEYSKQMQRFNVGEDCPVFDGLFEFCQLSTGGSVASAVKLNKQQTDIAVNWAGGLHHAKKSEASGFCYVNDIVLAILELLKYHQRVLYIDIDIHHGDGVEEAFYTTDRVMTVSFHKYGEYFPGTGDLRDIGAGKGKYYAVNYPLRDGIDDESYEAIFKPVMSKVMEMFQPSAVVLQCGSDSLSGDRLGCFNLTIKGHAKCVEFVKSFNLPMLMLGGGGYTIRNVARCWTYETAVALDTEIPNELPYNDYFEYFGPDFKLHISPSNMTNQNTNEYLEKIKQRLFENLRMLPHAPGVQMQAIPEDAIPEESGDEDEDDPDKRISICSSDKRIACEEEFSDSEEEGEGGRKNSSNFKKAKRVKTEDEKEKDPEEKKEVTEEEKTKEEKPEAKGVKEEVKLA
Chain of HDAC5 (Q9UQL6 whole entry): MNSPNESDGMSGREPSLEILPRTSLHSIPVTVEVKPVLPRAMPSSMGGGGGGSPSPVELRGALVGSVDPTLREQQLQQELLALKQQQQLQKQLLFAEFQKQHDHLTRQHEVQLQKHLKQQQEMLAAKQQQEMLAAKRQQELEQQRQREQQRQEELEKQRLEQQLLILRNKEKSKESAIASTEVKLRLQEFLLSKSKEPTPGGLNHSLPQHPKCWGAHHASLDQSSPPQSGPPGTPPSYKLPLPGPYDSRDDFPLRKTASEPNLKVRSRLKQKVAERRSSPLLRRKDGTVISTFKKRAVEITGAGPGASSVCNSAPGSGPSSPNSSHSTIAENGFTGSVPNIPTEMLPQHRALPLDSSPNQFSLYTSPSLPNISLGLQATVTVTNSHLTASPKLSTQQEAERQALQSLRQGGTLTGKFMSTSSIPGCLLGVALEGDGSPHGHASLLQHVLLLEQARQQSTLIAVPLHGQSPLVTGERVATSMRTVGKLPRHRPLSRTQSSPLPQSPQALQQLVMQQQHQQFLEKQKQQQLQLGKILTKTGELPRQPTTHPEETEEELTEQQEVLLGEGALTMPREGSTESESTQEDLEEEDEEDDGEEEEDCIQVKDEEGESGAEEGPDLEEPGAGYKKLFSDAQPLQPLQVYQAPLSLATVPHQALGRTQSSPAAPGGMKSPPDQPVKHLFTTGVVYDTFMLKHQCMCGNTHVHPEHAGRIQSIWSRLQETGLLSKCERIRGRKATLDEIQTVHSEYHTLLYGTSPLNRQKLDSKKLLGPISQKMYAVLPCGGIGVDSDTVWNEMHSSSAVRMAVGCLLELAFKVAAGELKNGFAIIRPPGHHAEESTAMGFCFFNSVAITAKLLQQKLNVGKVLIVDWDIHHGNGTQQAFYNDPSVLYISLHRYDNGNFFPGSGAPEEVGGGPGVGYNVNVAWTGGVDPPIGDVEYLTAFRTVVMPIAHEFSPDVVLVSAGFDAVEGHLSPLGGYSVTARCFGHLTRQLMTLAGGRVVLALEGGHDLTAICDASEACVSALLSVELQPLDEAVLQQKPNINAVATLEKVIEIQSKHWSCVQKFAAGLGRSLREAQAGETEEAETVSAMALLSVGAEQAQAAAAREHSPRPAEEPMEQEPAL
Chain of HDAC4 (P56524 whole entry): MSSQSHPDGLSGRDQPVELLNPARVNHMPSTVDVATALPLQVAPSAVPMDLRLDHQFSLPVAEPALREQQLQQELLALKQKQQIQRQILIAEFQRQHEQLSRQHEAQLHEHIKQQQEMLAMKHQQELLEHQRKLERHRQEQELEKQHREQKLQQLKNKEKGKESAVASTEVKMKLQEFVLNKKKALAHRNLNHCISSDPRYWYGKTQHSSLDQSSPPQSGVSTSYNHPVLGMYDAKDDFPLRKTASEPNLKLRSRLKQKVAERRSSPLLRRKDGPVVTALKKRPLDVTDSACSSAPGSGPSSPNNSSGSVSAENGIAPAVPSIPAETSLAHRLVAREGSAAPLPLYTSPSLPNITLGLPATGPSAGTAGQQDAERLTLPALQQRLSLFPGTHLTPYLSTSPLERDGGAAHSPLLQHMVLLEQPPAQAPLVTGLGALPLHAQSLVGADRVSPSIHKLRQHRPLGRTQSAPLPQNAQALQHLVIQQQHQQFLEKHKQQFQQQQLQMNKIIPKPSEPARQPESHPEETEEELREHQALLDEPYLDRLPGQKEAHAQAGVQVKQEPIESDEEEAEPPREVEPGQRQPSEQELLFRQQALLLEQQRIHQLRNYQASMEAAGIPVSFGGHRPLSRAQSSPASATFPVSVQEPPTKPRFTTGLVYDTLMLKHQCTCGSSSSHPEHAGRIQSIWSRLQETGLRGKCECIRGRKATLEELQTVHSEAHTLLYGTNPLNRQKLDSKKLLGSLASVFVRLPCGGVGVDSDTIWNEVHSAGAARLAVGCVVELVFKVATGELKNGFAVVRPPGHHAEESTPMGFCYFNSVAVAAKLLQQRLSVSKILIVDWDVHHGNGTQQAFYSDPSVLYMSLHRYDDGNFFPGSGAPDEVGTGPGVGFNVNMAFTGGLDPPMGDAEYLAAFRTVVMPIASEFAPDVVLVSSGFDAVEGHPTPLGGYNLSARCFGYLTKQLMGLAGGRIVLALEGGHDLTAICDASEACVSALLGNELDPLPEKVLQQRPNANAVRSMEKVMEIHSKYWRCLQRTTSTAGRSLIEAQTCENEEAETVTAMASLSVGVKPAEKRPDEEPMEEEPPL
Chain of HDAC8 (Q9BY41 whole entry): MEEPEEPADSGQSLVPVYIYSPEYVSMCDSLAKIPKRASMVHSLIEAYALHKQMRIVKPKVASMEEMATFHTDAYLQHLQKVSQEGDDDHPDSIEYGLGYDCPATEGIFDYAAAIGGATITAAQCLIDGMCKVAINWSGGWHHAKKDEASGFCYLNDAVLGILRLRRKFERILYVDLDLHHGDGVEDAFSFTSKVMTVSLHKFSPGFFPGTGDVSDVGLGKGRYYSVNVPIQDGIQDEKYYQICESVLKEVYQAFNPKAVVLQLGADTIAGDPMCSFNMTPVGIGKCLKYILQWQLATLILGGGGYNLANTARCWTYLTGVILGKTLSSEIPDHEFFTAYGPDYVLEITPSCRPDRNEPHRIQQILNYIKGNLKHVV
Chain of HDAC7 (Q8WUI4 whole entry): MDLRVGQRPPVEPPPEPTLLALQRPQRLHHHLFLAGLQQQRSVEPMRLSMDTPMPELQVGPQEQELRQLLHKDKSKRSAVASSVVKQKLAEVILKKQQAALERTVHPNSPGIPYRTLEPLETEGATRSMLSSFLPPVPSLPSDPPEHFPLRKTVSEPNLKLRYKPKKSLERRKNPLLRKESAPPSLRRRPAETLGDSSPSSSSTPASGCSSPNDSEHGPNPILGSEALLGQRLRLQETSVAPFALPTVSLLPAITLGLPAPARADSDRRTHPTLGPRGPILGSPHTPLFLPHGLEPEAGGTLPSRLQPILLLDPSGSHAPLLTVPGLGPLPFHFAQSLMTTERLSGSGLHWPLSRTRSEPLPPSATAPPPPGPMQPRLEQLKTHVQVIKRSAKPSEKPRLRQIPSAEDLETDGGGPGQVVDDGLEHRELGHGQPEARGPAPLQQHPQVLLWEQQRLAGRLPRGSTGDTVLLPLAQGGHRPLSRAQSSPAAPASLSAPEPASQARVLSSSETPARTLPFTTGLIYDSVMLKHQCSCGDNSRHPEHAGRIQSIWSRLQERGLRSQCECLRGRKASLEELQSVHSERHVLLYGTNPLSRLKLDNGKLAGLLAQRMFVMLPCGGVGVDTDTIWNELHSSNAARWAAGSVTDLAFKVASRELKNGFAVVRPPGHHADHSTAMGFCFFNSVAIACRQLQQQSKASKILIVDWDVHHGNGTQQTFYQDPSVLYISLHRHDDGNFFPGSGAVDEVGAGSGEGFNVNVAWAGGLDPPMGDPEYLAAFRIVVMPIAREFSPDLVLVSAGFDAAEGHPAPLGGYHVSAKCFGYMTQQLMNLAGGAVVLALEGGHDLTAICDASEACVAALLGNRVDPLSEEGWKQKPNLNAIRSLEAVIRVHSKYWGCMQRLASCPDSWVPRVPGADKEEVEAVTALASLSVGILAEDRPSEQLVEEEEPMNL

IC50 (HDAC1 [1]; read-out: HDAC1 IC50 after 3 hr preincubation, Table 2B): 2 nM | IC50 (HDAC2 [2]; read-out: HDAC2 IC50 after 3 hr preincubation, Table 2B): 19 nM | IC50 (HDAC3 [3]; read-out: HDAC3 IC50 after 3 hr preincubation, Table 2B): 2080 nM | IC50 (HDAC4): > 33000 nM | IC50 (HDAC5): > 33000 nM | IC50 (HDAC6): > 33000 nM | IC50 (HDAC7): > 33000 nM | IC50 (HDAC8): > 33000 nM | IC50 (HDAC9): > 33000 nM
Compound: CC(=O)Nc1ccc(C(=O)Nc2cc(-c3ccncc3)ccc2N)cc1 [BRD2492, reference compound]
toxicity to human megakaryocyte progenitors at higher concentrations [4]: highly toxic

T1/2 (HDAC2 [5]): 3.17 h | T1/2 (HDAC1 [6]): 1.23 h
Compound: CC(=O)Nc1ccc(C(=O)Nc2ccccc2N)cc1 [CI-994, 4-(Acetylamino)-N-(2-aminophenyl)benzamide, reference compound]
effect on megakaryocyte progenitor cell growth at 1 μM ([4]; 1 μM): significant toxic effect on cell growth | toxicity to human megakaryocyte progenitors at higher concentrations [4]: highly toxic

IC50 (HDAC1 [1]; [11]): 12 nM | IC50 (HDAC2 [2]; [12]): 18 nM | IC50 (HDAC3 [3]; [13]): 17 nM
Compound: Nc1cc(F)ccc1NC(=O)c1ccc(CNc2nccc(-c3cccnc3)n2)cc1 [Cmpd 2A, reference compound]

IC50 (HDAC1 [1]; [11]): 4 nM | IC50 (HDAC2 [2]; [12]): 23 nM | IC50 (HDAC3 [3]; [13]): 22 nM
Compound: Nc1ccccc1NC(=O)c1ccc(CNC(=O)/C=C/c2cccnc2)cc1 [Cmpd 3A, reference compound]

KI (inactivation) (HDAC1 [7]): 160 nM | IC50 (HDAC1 [1]; [11]): 120 nM | IC50 (HDAC1 [1]; read-out: HDAC1 IC50 @3 hr, 3 hr preincubation): 120 nM | IC50 (HDAC2 [2]; [12]): 157 nM | IC50 (HDAC2 [2]; read-out: HDAC2 IC50 @3 hr, 3 hr preincubation): 157 nM | IC50 (HDAC3 [3]; [13]): 36 nM | IC50 (HDAC3 [3]; read-out: HDAC3 IC50 @3 hr, 3 hr preincubation): 36 nM | koff (HDAC1 [6]): > 0.00333 s⁻¹ | Kon (HDAC1 [6]; HDAC1): 1.000 min^−1, uM^−1 | T1/2 (HDAC1 [6]): <0.067 h | Ki (HDAC2 [8]): 160 nM | koff (HDAC2 [8]): 0.000633 s⁻¹ | Kon (HDAC2 [8]; HDAC2): 0.24 min^−1, uM^−1 | T1/2 (HDAC2 [8]; HDAC2 residence): 0.283 h | Ki (HDAC3 [9]): 93 nM | koff (HDAC3 [9]): 0.000147 s⁻¹ | loss in potency for HDAC3 (Ki) compared to MS-275 (HDAC3 [9]): 8 fold | Kon (HDAC3 [9]; HDAC3): 0.093 min^−1, uM^−1 | T1/2 (HDAC3 [9]; HDAC3 residence): 1.32 h | less selective than compound 1 (HDAC3 [9]; Ki selectivity HDAC3 versus HDAC1 and 2): 100 fold | binding selectivity (Ki) for HDAC3 versus HDAC1 (HDAC3 [9]; thermodynamic (Ki)): 1.7 fold | binding selectivity (Ki) for HDAC3 versus HDAC2 (HDAC3 [9]; thermodynamic (Ki)): 1.7 fold
Compound: Nc1cc(F)ccc1NC(=O)c1ccc(CNC(=O)OCc2cccnc2)cc1 [Compound 1A, reference compound]

IC50 (HDAC1 [1]; [14]): 4560 nM | IC50 (HDAC2 [2]; [15]): 24400 nM | IC50 (HDAC3 [3]; [16]): 2050 nM
Compound: CC(=O)Nc1ccc(C(=O)Nc2ccc(Cl)cc2N)cc1 [Compound 2, 4-acetamido-N-(2-amino-4-chlorophenyl)benzamide]

IC50 (HDAC1 [1]; [14]): 2180 nM | IC50 (HDAC2 [2]; [15]): 4930 nM | IC50 (HDAC3 [3]; [16]): 551 nM
Compound: CC(=O)Nc1ccc(C(=O)Nc2c(N)cccc2F)cc1 [Compound 3, 4-acetamido-N-(2-amino-6-fluorophenyl)benzamide]
HDAC isoform selectivity [10]: HDAC3 selective compound

IC50 (HDAC1 [1]; [14]): 2120 nM | IC50 (HDAC2 [2]; [15]): 4440 nM | IC50 (HDAC3 [3]; [16]): 376 nM
Compound: CC(=O)Nc1ccc(C(=O)Nc2cccc(F)c2N)cc1 [Compound 4, 4-acetamido-N-(2-amino-3-fluorophenyl)benzamide]
HDAC isoform selectivity [10]: HDAC3 selective compound

IC50 (HDAC1 [1]; [14]): 1730 nM | IC50 (HDAC2 [2]; [15]): 3540 nM | IC50 (HDAC3 [3]; [16]): 299 nM
Compound: CC(=O)Nc1ccc(C(=O)Nc2cc(Br)ccc2N)cc1 [Compound 5, 4-acetamido-N-(2-amino-5-bromophenyl)benzamide]
